# Experimental data reported in US20250163104A1, “MACROCYCLIC IMMUNOMODULATORS” (priority 2021, published 2025).
# Where a SMILES comes first, the peptide text is derived from it. Bridges are numbered along the chain shown (N, C = ends). [ ]: non-standard residue; d: D form. The star is where a group is joined. Phe(3-CF3) = N[C@@H](Cc1cccc(C(F)(F)F)c1)C(=O)O; Ala(morpholin-4-yl) = N[C@@H](CN1CCOCC1)C(=O)O; Phe(4-COOH) = N[C@@H](Cc1ccc(C(=O)O)cc1)C(=O)O; Bip = N[C@@H](Cc1ccc(-c2ccccc2)cc1)C(=O)O; Abu(3R-NH2) = C[C@@H](N)[C@H](N)C(=O)O; Phe(3-Me) = Cc1cccc(C[C@H](N)C(=O)O)c1; Val(3-OH) = CC(C)(O)[C@H](N)C(=O)O; Cha = N[C@@H](CC1CCCCC1)C(=O)O; Carboxymethyl = O=C(O)C*; Nle = CCCC[C@H](N)C(=O)O; Orn = NCCC[C@H](N)C(=O)O; Dab = NCC[C@H](N)C(=O)O; X1 = C1CCC(*)CC1
# Biological target: T1, human PD-1 / PD-L1-Ig binding on Jurkat cell line over-expressing human PD-1 (Jurkat-PD-1) (Homo sapiens, UniProt Q15116)
# T1 construct: expressed in transfected cells; host or cells: Jurkat
# Experiment: Jurkat-PD-1 Cell Binding High-Content Screening Assay (CBA)
# Type: cell-based
# Conditions: Jurkat-PD-1 cells, PE-labeled PD-L1-Ig 20 nM final; read-out: Jurkat HPD1_PDL1 IC50
# Method in brief: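 Compounds were preincubated with Jurkat-hPD-1 cells in DMEM plus 10% fetal calf serum for 2 h at 37° C. Phycoerythrin-labeled PD-L1-Ig (20 nM final) was then added for 1 hour. Cells were fixed in 4% paraformaldehyde with Hoechst 33342, and bound fluorescence was quantified by high-content imaging.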
# T1 sequence (Q15116 25-288): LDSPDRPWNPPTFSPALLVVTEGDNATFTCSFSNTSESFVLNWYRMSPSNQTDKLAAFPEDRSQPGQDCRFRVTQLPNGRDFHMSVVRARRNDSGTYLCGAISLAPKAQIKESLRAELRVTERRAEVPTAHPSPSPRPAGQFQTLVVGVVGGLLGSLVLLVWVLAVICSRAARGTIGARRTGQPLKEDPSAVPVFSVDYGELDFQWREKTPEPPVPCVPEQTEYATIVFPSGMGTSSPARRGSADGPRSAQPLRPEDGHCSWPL
row,Compound,IC50
1,Cc1cccc(C[C@@H]2NC(=O)[C@H](CC(N)=O)NC(=O)[C@H](Cc3ccc(C(=O)O)cc3)NC(=O)[C@H](CCN)NC(=O)CSC[C@@H](C(=O)N[C@@H](CCN)C(N)=O)NC(=O)[C@H](CO)NC(=O)[C@H](C(C)(C)O)NC(=O)[C@H](CC3CCCCC3)NC(=O)[C@H](CCN)NC(=O)[C@@H](CC(C)C)NC(=O)[C@H](CCCN)NC(=O)[C@H](Cc3ccc(C(=O)O)cc3)NC(=O)[C@H](Cc3ccc(-c4ccccc4)cc3)NC(=O)[C@H](Cc3ccc(C(=O)O)cc3)NC2=O)c1 [Example 2720] ({CH2CO}-[Dab][Phe(4-COOH)]N[Phe(3-Me)][Phe(4-COOH)][Bip][Phe(4-COOH)][Orn][dL][Dab][Cha][Val(3-OH)]SC[Dab]-NH2; thioether N-14),0.101 µM
2,Cc1cccc(C[C@@H]2NC(=O)[C@H](CC(N)=O)NC(=O)[C@H](Cc3ccc(C(=O)O)cc3)NC(=O)[C@H](CC(C)C)NC(=O)CSC[C@@H](C(=O)N[C@@H](CCN)C(N)=O)NC(=O)[C@H](CCC(=O)O)NC(=O)[C@H](C(C)C)NC(=O)[C@H](CC3CCCCC3)NC(=O)[C@H](CCN)NC(=O)[C@@H](CC(C)C)NC(=O)[C@H](CCCN)NC(=O)[C@H](Cc3ccc(C(=O)O)cc3)NC(=O)[C@H](Cc3ccc(-c4ccccc4)cc3)NC(=O)[C@H](Cc3ccc(C(=O)O)cc3)NC2=O)c1 [Example 2721] ({CH2CO}-L[Phe(4-COOH)]N[Phe(3-Me)][Phe(4-COOH)][Bip][Phe(4-COOH)][Orn][dL][Dab][Cha]VEC[Dab]-NH2; thioether N-14),0.19 µM
3,CC(C)C[C@H]1NC(=O)[C@H](CCCN)NC(=O)[C@H](Cc2ccc(C(=O)O)cc2)NC(=O)[C@H](Cc2ccc(-c3ccccc3)cc2)NC(=O)[C@H](Cc2ccc(C(=O)O)cc2)NC(=O)[C@H](Cc2cccc(C(F)(F)F)c2)NC(=O)[C@H](CC(N)=O)NC(=O)[C@H](Cc2ccc(C(=O)O)cc2)NC(=O)[C@H](CN2CCOCC2)NC(=O)CSC[C@@H](C(=O)N[C@@H](CCN)C(N)=O)NC(=O)[C@H](CCC(=O)O)NC(=O)[C@H](C(C)C)NC(=O)[C@H](CC2CCCCC2)NC(=O)[C@H](CCN)NC1=O [Example 2722] ({CH2CO}-[Ala(morpholin-4-yl)][Phe(4-COOH)]N[Phe(3-CF3)][Phe(4-COOH)][Bip][Phe(4-COOH)][Orn][dL][Dab][Cha]VEC[Dab]-NH2; thioether N-14),0.105 µM
4,CCCC[C@@H]1NC(=O)CSC[C@@H](C(=O)N[C@@H](CCN)C(N)=O)NC(=O)[C@H](CCC(=O)O)NC(=O)[C@H](C(C)C)NC(=O)[C@H](CC2CCCCC2)NC(=O)[C@H](CCN)NC(=O)[C@@H](CC(C)C)NC(=O)[C@H](CCCN)NC(=O)[C@H](Cc2ccc(C(=O)O)cc2)NC(=O)[C@H](Cc2ccc(-c3ccccc3)cc2)NC(=O)[C@H](Cc2ccc(C(=O)O)cc2)NC(=O)[C@H](Cc2cccc(C)c2)NC(=O)[C@H](CC(N)=O)NC(=O)[C@H](Cc2ccc(OCC(=O)O)cc2)NC1=O [Example 2723] ({CH2CO}-[Nle]Y(Carboxymethyl)N[Phe(3-Me)][Phe(4-COOH)][Bip][Phe(4-COOH)][Orn][dL][Dab][Cha]VEC[Dab]-NH2; thioether N-14),0.2 µM
5,CC(C)C[C@H]1NC(=O)[C@H](CCCN)NC(=O)[C@H](Cc2ccc(OCC(=O)O)cc2)NC(=O)[C@H](Cc2ccc(-c3ccccc3)cc2)NC(=O)[C@H](Cc2ccc(C(=O)O)cc2)NC(=O)[C@H](Cc2cccc(C(F)(F)F)c2)NC(=O)[C@H](CC(N)=O)NC(=O)[C@H](Cc2ccc(OCC(=O)O)cc2)NC(=O)[C@H](CN2CCOCC2)NC(=O)CSC[C@@H](C(=O)N[C@@H](CCN)C(N)=O)NC(=O)[C@H](CO)NC(=O)[C@H](C(C)C)NC(=O)[C@H](CC2CCCCC2)NC(=O)[C@H](CCN)NC1=O [Example 2724] ({CH2CO}-[Ala(morpholin-4-yl)]Y(Carboxymethyl)N[Phe(3-CF3)][Phe(4-COOH)][Bip]Y(Carboxymethyl)[Orn][dL][Dab][Cha]VSC[Dab]-NH2; thioether N-14),0.0353 µM
6,Cc1cccc(C[C@@H]2NC(=O)[C@H](CC(N)=O)NC(=O)[C@H](Cc3ccc(OCC(=O)O)cc3)NC(=O)[C@H](CN3CCOCC3)NC(=O)CSC[C@@H](C(=O)N[C@@H](CCN)C(N)=O)NC(=O)[C@H](CCCN)NC(=O)[C@H](C(C)C)NC(=O)[C@H](CC3CCCCC3)NC(=O)[C@H](CCN)NC(=O)[C@@H](CC(C)C)NC(=O)[C@H](CCCN)NC(=O)[C@H](CCCN)NC(=O)[C@H](Cc3ccc(-c4ccccc4)cc3)NC(=O)[C@H](Cc3ccc(C(=O)O)cc3)NC2=O)c1 [Example 2725] ({CH2CO}-[Ala(morpholin-4-yl)]Y(Carboxymethyl)N[Phe(3-Me)][Phe(4-COOH)][Bip][Orn][Orn][dL][Dab][Cha]V[Orn]C[Dab]-NH2; thioether N-14),0.0481 µM
7,CC(C)C[C@H]1NC(=O)[C@H](CCCN)NC(=O)[C@H](CCCN)NC(=O)[C@H](Cc2ccc(-c3ccccc3)cc2)NC(=O)[C@H](Cc2ccc(C(=O)O)cc2)NC(=O)[C@H](Cc2cccc(C(F)(F)F)c2)NC(=O)[C@H](CC(N)=O)NC(=O)[C@H](Cc2ccc(OCC(=O)O)cc2)NC(=O)[C@H](CN2CCOCC2)NC(=O)CSC[C@@H](C(=O)N[C@@H](CCN)C(N)=O)NC(=O)[C@H](CCCN)NC(=O)[C@H](C(C)C)NC(=O)[C@H](CC2CCCCC2)NC(=O)[C@H](CCN)NC1=O [Example 2726] ({CH2CO}-[Ala(morpholin-4-yl)]Y(Carboxymethyl)N[Phe(3-CF3)][Phe(4-COOH)][Bip][Orn][Orn][dL][Dab][Cha]V[Orn]C[Dab]-NH2; thioether N-14),0.0655 µM

# Continued by falling IC50, values first:
row,IC50,Compound
1,0.964 µM,CC(C)C[C@H]1NC(=O)[C@H](CCCN)NC(=O)[C@H](CCCN)NC(=O)[C@H](Cc2ccc(-c3ccccc3)cc2)NC(=O)[C@H](Cc2ccc(C(=O)O)cc2)NC(=O)[C@H](Cc2cccc(C(F)(F)F)c2)NC(=O)[C@H](CC(N)=O)NC(=O)[C@H](Cc2ccc(C(=O)O)cc2)NC(=O)[C@H](CN2CCOCC2)NC(=O)CSC[C@@H](C(=O)N[C@@H](CCN)C(N)=O)NC(=O)[C@H](CCCN)NC(=O)[C@H](C(C)C)NC(=O)[C@H](CC2CCCCC2)NC(=O)[C@H](CCN)NC1=O [Example 2728] ({CH2CO}-[Ala(morpholin-4-yl)][Phe(4-COOH)]N[Phe(3-CF3)][Phe(4-COOH)][Bip][Orn][Orn][dL][Dab][Cha]V[Orn]C[Dab]-NH2; thioether N-14)
2,0.348 µM,Cc1cccc(C[C@@H]2NC(=O)[C@H](CC(N)=O)NC(=O)[C@H](Cc3ccc(C(=O)O)cc3)NC(=O)[C@H](CN3CCOCC3)NC(=O)CSC[C@@H](C(=O)N[C@@H](CCN)C(N)=O)NC(=O)[C@H](CCCN)NC(=O)[C@H](C(C)C)NC(=O)[C@H](CC3CCCCC3)NC(=O)[C@H](CCN)NC(=O)[C@@H](CC(C)C)NC(=O)[C@H](CCCN)NC(=O)[C@H](CCCN)NC(=O)[C@H](Cc3ccc(-c4ccccc4)cc3)NC(=O)[C@H](Cc3ccc(C(=O)O)cc3)NC2=O)c1 [Example 2727] ({CH2CO}-[Ala(morpholin-4-yl)][Phe(4-COOH)]N[Phe(3-Me)][Phe(4-COOH)][Bip][Orn][Orn][dL][Dab][Cha]V[Orn]C[Dab]-NH2; thioether N-14)
3,0.33 µM,CCCC[C@@H]1NC(=O)CSC[C@@H](C(=O)N[C@@H](CCN)C(N)=O)NC(=O)[C@H](CO)NC(=O)[C@H](C(C)(C)O)NC(=O)[C@H](CC2CCCCC2)NC(=O)[C@H](CCN)NC(=O)[C@@H](CC(C)C)NC(=O)[C@H](CCCN)NC(=O)[C@H](Cc2ccc(C(=O)O)cc2)NC(=O)[C@H](Cc2ccc(-c3ccccc3)cc2)NC(=O)[C@H](Cc2ccc(C(=O)O)cc2)NC(=O)[C@H](Cc2cccc(C(F)(F)F)c2)NC(=O)[C@H](CC(N)=O)NC(=O)[C@H](Cc2ccc(C(=O)O)cc2)NC1=O [Example 2718] ({CH2CO}-[Nle][Phe(4-COOH)]N[Phe(3-CF3)][Phe(4-COOH)][Bip][Phe(4-COOH)][Orn][dL][Dab][Cha][Val(3-OH)]SC[Dab]-NH2; thioether N-14)
4,0.0439 µM,CC(C)C[C@H]1NC(=O)[C@H](CCCN)NC(=O)[C@H](Cc2ccc(C(=O)O)cc2)NC(=O)[C@H](Cc2ccc(-c3ccccc3)cc2)NC(=O)[C@H](Cc2ccc(C(=O)O)cc2)NC(=O)[C@H](Cc2cccc(C(F)(F)F)c2)NC(=O)[C@H](CC(N)=O)NC(=O)[C@H](Cc2ccc(C(=O)O)cc2)NC(=O)[C@H](CN2CCOCC2)NC(=O)CSC[C@@H](C(=O)N[C@@H](CCN)C(N)=O)NC(=O)[C@H](CO)NC(=O)[C@H](C(C)(C)O)NC(=O)[C@H](CC2CCCCC2)NC(=O)[C@H](CCN)NC1=O [Example 2719] ({CH2CO}-[Ala(morpholin-4-yl)][Phe(4-COOH)]N[Phe(3-CF3)][Phe(4-COOH)][Bip][Phe(4-COOH)][Orn][dL][Dab][Cha][Val(3-OH)]SC[Dab]-NH2; thioether N-14)
5,0.0356 µM,CC(C)C[C@H]1NC(=O)[C@H](CCCN)NC(=O)[C@H](Cc2ccc(C(=O)O)cc2)NC(=O)[C@H](Cc2ccc(-c3ccccc3)cc2)NC(=O)[C@H](Cc2ccc(C(=O)O)cc2)NC(=O)[C@H](Cc2cccc(C(F)(F)F)c2)NC(=O)[C@H](CC(N)=O)NC(=O)[C@H](Cc2ccc(C(=O)O)cc2)NC(=O)[C@H]([C@@H](C)N)NC(=O)CSC[C@@H](C(=O)N[C@@H](CCN)C(N)=O)NC(=O)[C@H](CO)NC(=O)[C@H](C(C)(C)O)NC(=O)[C@H](CC2CCCCC2)NC(=O)[C@H](CCN)NC1=O [Example 2717] ({CH2CO}-[Abu(3R-NH2)][Phe(4-COOH)]N[Phe(3-CF3)][Phe(4-COOH)][Bip][Phe(4-COOH)][Orn][dL][Dab][Cha][Val(3-OH)]SC[Dab]-NH2; thioether N-14)
6,0.002 µM,CC(C)C[C@H]1NC(=O)[C@H](CCCN)NC(=O)[C@H](Cc2ccc(C(=O)O)cc2)NC(=O)[C@H](Cc2ccc(-c3ccccc3)cc2)NC(=O)[C@H](Cc2ccc(OC3CCCCC3)cc2)NC(=O)[C@H](Cc2cccc(C(F)(F)F)c2)NC(=O)[C@H](CC(=O)O)NC(=O)[C@H](Cc2ccc(C(=O)O)cc2)NC(=O)[C@H](CN2CCOCC2)NC(=O)CSC[C@@H](C(=O)N[C@@H](CCN)C(N)=O)NC(=O)[C@H](CCC(=O)O)NC(=O)[C@H](C(C)C)NC(=O)[C@H](CC2CCCCC2)NC(=O)[C@H](CCN)NC1=O [Example 2729] ({CH2CO}-[Ala(morpholin-4-yl)][Phe(4-COOH)]D[Phe(3-CF3)]Y(X1)[Bip][Phe(4-COOH)][Orn][dL][Dab][Cha]VEC[Dab]-NH2; thioether N-14)
